Test results as given in PubChem BioAssay (NCI).
In brackets after ≈: the same amount, converted by molar mass.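 Cells were grown in 96-well plates and exposed to each compound for 48 hours at five concentrations; endpoints were interpolated linearly between bracketing concentrations, or set to the highest concentration if not reached. GI50: concentration for 50% inhibition of growth. TGI denotes the concentration required for complete inhibition of growth.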

Legend:
Experiment in all cases: growth of human tumour cells (NCI), 48 h
[1] = tested on: MDA-N
[2] = tested on: SK-MEL-5 melanoma
[3] = tested on: U251 CNS
[4] = tested on: SR leukemia
[5] = tested on: SF-539 CNS
[6] = tested on: SNB-75 CNS
[7] = tested on: DU-145 prostate
[8] = tested on: BT-549 breast
[9] = tested on: OVCAR-8 ovarian
[10] = tested on: NCI-H522 lung

`O=C1NN(C2=NNC3(C(=O)N2)c2ccccc2-c2ccccc23)C(c2ccccc2)=N/C1=C/c1ccc(O)cc1` was tested, and the GI50 [1] was 56.8 µg/mL (≈ 108 µM), the TGI [1] was > 150 µg/mL and the GI50 [2] was 39.2 µg/mL. For the same compound, the TGI [2] was > 150 µg/mL, the GI50 [3] was 104 µg/mL and the TGI [3] was > 150 µg/mL. For the same compound, the GI50 [4] was 59.7 µg/mL, the TGI [4] was > 150 µg/mL and the GI50 [5] was 32.7 µg/mL. For the same compound, the TGI [5] was 87.5 µg/mL, the GI50 [6] was 57.4 µg/mL and the TGI [6] was > 150 µg/mL. The GI50 [7] was 90.8 µg/mL, the TGI [7] was > 150 µg/mL and the GI50 [8] was > 150 µg/mL. The TGI [8] was > 150 µg/mL, the GI50 [9] was 65.9 µg/mL and the TGI [9] was > 150 µg/mL.

`O=C(N/N=C\c1cccc(O)c1)c1ccncc1` was tested, and the TGI [1] was > 100 µM, the TGI [3] was > 100 µM and the TGI [4] was > 100 µM. The TGI [10] was > 100 µM, the TGI [6] was > 100 µM and the TGI [7] was > 100 µM. For the same compound, the TGI [8] was > 100 µM and the TGI [9] was > 100 µM.

For `Cc1nc2ccccc2n1C(=O)c1c(F)c(F)c(F)c(F)c1F`, the TGI [1] was 33.2 µM, the TGI [2] was 26.9 µM and the TGI [3] was 52.6 µM. The TGI [4] was > 100 µM, the TGI [10] was 10.9 µM and the TGI [5] was 29.5 µM. For the same compound, the TGI [6] was 90.1 µM, the TGI [7] was 76.5 µM and the TGI [8] was 39.5 µM. For the same compound, the TGI [9] was 40.6 µM.

`C=CC1(C)CCC2=C(CCC3C(C)(C(=O)OC)CCCC23C)C1=O` (stereo unspecified) was tested, and the TGI [2] was 30.3 µM, the TGI [3] was 29 µM and the TGI [4] was 42 µM. The TGI [10] was 29.3 µM and the TGI [9] was > 100 µM.

In the case of `Cn1c(=O)c2[nH]c(CCCCC(=O)O)nc2n(C)c1=O`, the TGI [1] is reported as > 100 µM, the TGI [2] is reported as > 100 µM and the TGI [3] is reported as > 100 µM. The TGI [10] was > 100 µM, the TGI [6] was > 100 µM and the TGI [7] was > 100 µM. For the same compound, the TGI [8] was > 100 µM and the TGI [9] was > 100 µM.

`Clc1ccccc1/C=C/c1cscn1` was tested, and the TGI [3] was > 100 µM, the TGI [4] was > 100 µM and the TGI [10] was > 100 µM. For the same compound, the TGI [5] was > 100 µM and the TGI [6] was > 100 µM.

For `CCOC(=O)CN=C1NNS(=O)(=O)c2ccccc21`, the TGI [1] was > 100 µM, the TGI [2] was > 100 µM and the TGI [3] was > 100 µM. The TGI [4] was > 100 µM, the TGI [10] was > 100 µM and the TGI [5] was > 100 µM. The TGI [6] was > 100 µM, the TGI [7] was > 100 µM and the TGI [8] was > 100 µM. For the same compound, the TGI [9] was > 100 µM.

For `C=C(C)C(=O)OC1CCC2(C)C(CCC3C2CCC2(C)C(c4ccc(=O)oc4)CC4OC432)C1` (stereo unspecified), the TGI [2] was 19.1 µM, the TGI [3] was 30.3 µM and the TGI [10] was 8.78 µM. The TGI [5] was 27.9 µM, the TGI [6] was 36.6 µM and the TGI [9] was 24 µM.

With `CCOC(=O)C(O)(NC(=O)c1ccc(F)cc1)C(F)(F)F` (stereo unspecified) the TGI [1] was > 100 µM, the TGI [2] was > 100 µM and the TGI [3] was > 100 µM. For the same compound, the TGI [4] was > 100 µM, the TGI [10] was > 100 µM and the TGI [5] was > 100 µM. The TGI [6] was > 100 µM, the TGI [7] was > 100 µM and the TGI [8] was > 100 µM. The TGI [9] was > 100 µM.

`Cc1cc(O)c(C(C)(C)C)cc1Sc1cc(C(C)(C)C)c(O)cc1C` gave a GI50 [2] of 1.58 µM, a TGI [2] of 3.02 µM and a GI50 [3] of 1.99 µM. It also gave a TGI [3] of 4.22 µM, a GI50 [4] of 1.89 µM and a TGI [4] of 7.23 µM. For the same compound, the GI50 [10] was 2.73 µM, the TGI [10] was 5.62 µM and the GI50 [5] was 2.77 µM. It also gave a TGI [5] of 9 µM, a GI50 [6] of 2.99 µM and a TGI [6] of 14.5 µM. It also gave a GI50 [7] of 3.69 µM, a TGI [7] of 13.2 µM and a GI50 [9] of 3.82 µM. It also gave a TGI [9] of 15.4 µM.
